Data as given in US11466023B2, “Combination of a Mcl-1 inhibitor and a standard of care treatment for hematologic cancers, uses and pharmaceutical compositions thereof” (LES LABORATOIRES SERVIER, priority 2017, dated 2022).
pIC50: −log10 of the molar value. Like-named read-outs stand apart in the source and are kept apart here.

How the values were obtained:
[1] = system: EOL-1 AML cell line; assay: Single agent cell viability (CellTiterGlo); type: cell-based; settings: Homo sapiens, EOL1, 72 h; EOL-1, single agent, 3 days incubation, CellTiterGlo; read-out: IC50
Experimental: (§1) Cell lines were cultured at 37° C. in a humidified atmosphere containing 5% CO2 and expanded in T-150 flasks. […] In order to analyse the activity of the compounds as single agents, cells were seeded and treated with nine 2-fold serial dilutions of each compound dispensed individually directly into the cell assay plates. […] All the experiments were performed in triplicates. Luminescence was quantified on a multipurpose plate reader. Single agent IC50s were calculated using standard four-parametric curve fitting.

[2] = system: GDM-1 AML cell line; assay: Single agent cell viability (CellTiterGlo); type: cell-based; settings: Homo sapiens, 72 h; GDM-1, single agent, 3 days incubation, CellTiterGlo; read-out: IC50
Experimental: as §1

[3] = system: HL-60 AML cell line; assay: Single agent cell viability (CellTiterGlo); type: cell-based; settings: Homo sapiens, 72 h; HL-60, single agent, 3 days incubation, CellTiterGlo; read-out: IC50
Experimental: as §1

[4] = system: KG1 AML cell line; assay: Single agent cell viability (CellTiterGlo); type: cell-based; settings: 72 h; KG1, single agent, 3 days incubation, CellTiterGlo; read-out: IC50
Experimental: as §1

[5] = system: KG1a AML cell line; assay: Single agent cell viability (CellTiterGlo); type: cell-based; settings: Homo sapiens, KG-1a, 72 h; KG1a, single agent, 3 days incubation, CellTiterGlo; read-out: IC50
Experimental: as §1

[6] = system: Kasumi-1 AML cell line; assay: Single agent cell viability (CellTiterGlo); type: cell-based; settings: Homo sapiens, 72 h; Kasumi-1, single agent, 3 days incubation, CellTiterGlo; read-out: IC50
Experimental: as §1

[7] = system: ML-2 AML cell line; assay: Single agent cell viability (CellTiterGlo); type: cell-based; settings: 72 h; ML-2, single agent, 3 days incubation, CellTiterGlo; read-out: IC50
Experimental: as §1

[8] = system: MOLM-13 AML cell line; assay: Single agent cell viability (CellTiterGlo); type: cell-based; settings: Homo sapiens, 72 h; MOLM-13, single agent, 3 days incubation, CellTiterGlo; read-out: IC50
Experimental: as §1

[9] = system: MV4; 11 AML cell line; assay: Single agent cell viability (CellTiterGlo); type: cell-based; settings: Homo sapiens, 72 h; MV4; 11, single agent, 3 days incubation, CellTiterGlo; read-out: IC50
Experimental: as §1

[10] = system: Nomo-1 AML cell line; assay: Single agent cell viability (CellTiterGlo); type: cell-based; settings: Homo sapiens, 72 h; Nomo-1, single agent, 3 days incubation, CellTiterGlo; read-out: IC50
Experimental: as §1

[11] = system: OCI-AML3 AML cell line; assay: Single agent cell viability (CellTiterGlo); type: cell-based; settings: Homo sapiens, OCI-AML-3, 72 h; OCI-AML3, single agent, 3 days incubation, CellTiterGlo; read-out: IC50
Experimental: as §1

[12] = system: PL-21 AML cell line; assay: Single agent cell viability (CellTiterGlo); type: cell-based; settings: 72 h; PL-21, single agent, 3 days incubation, CellTiterGlo; read-out: IC50
Experimental: as §1

[13] = system: THP-1 AML cell line; assay: Single agent cell viability (CellTiterGlo); type: cell-based; settings: Homo sapiens, 72 h; THP-1, single agent, 3 days incubation, CellTiterGlo; read-out: IC50
Experimental: as §1

[14] = system: mononuclear cells from AML patient samples; assay: Cell viability assay (Sytox blue flow cytometry) in primary AML samples; type: cell-based, human; settings: Homo sapiens, 48 h, combination at 1:1 ratio, read-out: 50% lethal concentration (LC50)
Experimental: Bone marrow samples from patients with AML were collected after informed consent in accordance with guidelines approved by The Alfred Hospital Human research ethics committee.
Mononuclear cells were isolated by density-gradient centrifugation Ficoll-Hypaque (GE Healthcare, Australia) density-gradient centrifugation and red cell lysis was performed using 0.156 M NH4Cl, 0.017 M Tris-HCl pH 7.2 as previously described (Rijal et al., Blood 2015, 125, 2815-2824). Cells were then re-suspended in phosphate-buffered saline containing 2% Fetal Bovine serum (FBS; Sigma, Australia). Mononuclear cells were then suspended in RPMI-1640 (GIBCO, Australia) medium containing penicillin and streptomycin (GIBCO) and heat inactivated fetal bovine serum 15% (Sigma). Cells were washed in phosphate-buffered saline (PBS) containing 2% FBS prior to use.
Freshly purified mononuclear cells from AML patient samples were adjusted to a concentration of 2.5×10^5/mL and 100 μL of cells aliquoted per well into 96 well plates (Sigma). Cells were then treated with idarubicin and Compound 2 over a […] concentration range from 1 nM to 10 μM for 48 hours. For combinations assays, drugs were added at a 1:1 ratio from 1 nM to 10 μM and cells were incubated at 37° C. 5% CO2. Cells were then stained with Sytox blue nucleic acid stain (Invitrogen, Australia) and fluorescence measured by flow cytometric analysis using the LSR-II Fortessa (Becton Dickinson, Australia). FACSDiva software was used for data collection, and FlowJo software for analysis. Blast cells were gated using forward and side scatter properties. Viable cells excluding Sytox blue were determined at 6 concentrations for each drug and the 50% lethal concentration (LC50, in μM) determined.

Work on `CC(=O)[C@]1(O)Cc2c(O)c3c(c(O)c2[C@@H](O[C@H]2C[C@H](N)[C@H](O)[C@H](C)O2)C1)C(=O)c1ccccc1C3=O` [Idarubicin, idarubicin] yielded a pIC50 [1] of 8.70, a pIC50 [2] of 8.10 and a pIC50 [3] of 8.70. It also gave a pIC50 [4] of 8.22, a pIC50 [5] of 8.00 and a pIC50 [6] of 8.52. The pIC50 [7] was 8.00, the pIC50 [8] was 8.52 and the pIC50 [9] was 9.00. It also gave a pIC50 [10] of 7.55, a pIC50 [11] of 7.70 and a pIC50 [12] of 7.64. The pIC50 [13] was 7.62, the CC50 ([14]; Patient AML 6200840, 48 hours) was 0.384 µM and the CC50 ([14]; Patient AML AH0131936, 48 hours) was 0.886 µM. The CC50 ([14]; Patient AML AH0465385, 48 hours) was 5.13 µM, the CC50 ([14]; Patient AML AH0607688, 48 hours) was 0.593 µM and the CC50 ([14]; Patient AML AH0979006, 48 hours) was 0.00107 µM. The CC50 ([14]; Patient AML AH1081582, 48 hours) was 0.184 µM, the CC50 ([14]; Patient AML AH1228742, 48 hours) was 404 µM and the CC50 ([14]; Patient AML AH6120264, 48 hours) was 0.328 µM. The CC50 ([14]; Patient AML AH6181414_2, 48 hours) was 3.47 µM, the CC50 ([14]; Patient AML AH6202849, 48 hours) was 2.87 µM and the CC50 ([14]; Patient AML AH6208160, 48 hours) was 1.75 µM. The CC50 ([14]; Patient AML AH6208654, 48 hours) was 0.308 µM, the CC50 ([14]; Patient AML AH6210946, 48 hours) was 0.105 µM and the CC50 ([14]; Patient AML AH6214498, 48 hours) was 0.00111 µM. For the same compound, the CC50 ([14]; Patient AML AH6217528, 48 hours) was 0.0335 µM, the CC50 ([14]; Patient AML AH6219953, 48 hours) was 4.37 µM and the CC50 ([14]; Patient AML AH6220847, 48 hours) was 0.0144 µM. It also gave a CC50 ([14]; Patient AML AH6223646, 48 hours) of 0.315 µM, a CC50 ([14]; Patient AML AH6224104, 48 hours) of 192 µM and a CC50 ([14]; Patient AML AH6229985, 48 hours) of 0.00138 µM. For the same compound, the CC50 ([14]; Patient AML AH6607085, 48 hours) was 0.563 µM, the CC50 ([14]; Patient AML AH6615742, 48 hours) was 2.93 µM and the CC50 ([14]; Patient AML AH6627892, 48 hours) was 2.2 µM.
